Reference: ChEMBL document CHEMBL3421556, “Bis(aminomethyl)phosphinic Acid, a Highly Promising Scaffold for the Development of Bacterial Urease Inhibitors” (ACS Med Chem Lett, 2015)

What was measured:
[1] = Inhibition of urease from Proteus mirabilis CCM 1944 using urea as substrate by Berthelot colorimetric assay
[2] = Inhibition of urease from Sporosarcina pasteurii CCM 2056 using urea as substrate by Berthelot colorimetric assay

Structure (SMILES)	Ki ([1]; read-out: Ki) [µM]	Ki ([2]; read-out: Ki) [µM]	Ki [1]	Ki [2]
CCCCNCP(=O)(O)CN	25.9	9.6		
CCCCCCCNCP(=O)(O)CN	778	543		
CCN(CC)CP(=O)(O)CN			Not Active	Not Active
CCCCCCCCNCP(=O)(O)CN			Not Active	Not Active
NCP(=O)(O)CNC1CCCCC1			Not Active	Not Active
O=P(O)(CNCc1ccccc1)CNCc1ccccc1	24.5	30.1		
CN(C)CP(=O)(O)CN	24.4	4.66		
NCP(=O)(O)CN	82	80		
CN(C)CP(=O)(O)CN(C)C	243			Not Active
CNCP(=O)(O)CN	34	1.59		
NCP(=O)(O)CN1CCCCC1			Not Active	Not Active
CCCCCNCP(=O)(O)CN	19	13.3		
CCCNCP(=O)(O)CN	16	11.2		
CNCP(=O)(O)CNC	17.2	4.3		
CCCCCCNCP(=O)(O)CN	0.202	0.108		
CC(C)CNCP(=O)(O)CN	416	270		
CC(=O)NO [ACETOHYDROXAMIC ACID]	5.7	3.3		
CN(Cc1ccccc1)CP(=O)(O)CN	58.3	14.2		
